From publication PMC7582929, “Characterization of Cetacean Proline-Rich Antimicrobial Peptides Displaying Activity against ESKAPE Pathogens” (International Journal of Molecular Sciences, 2020)
Read-outs that look alike come from different tables or passages of the source. Ends that are not written are not given here.

Key:
E. faecium ATCC 19434 = assay type: cell-based, Enterococcus faecium; details: ATCC 19434, 18 h
Excerpt: (§1) The following microbial reference strains were utilized: Escherichia coli BW25113, E. coli ATCC 25922, E. coli ML35p, Enterococcus faecium ATCC 19434, Staphylococcus aureus ATCC 25923, Klebsiella pneumoniae ATCC 700603, Acinetobacter baumannii ATCC 19606, Pseudomonas aeruginosa ATCC 27853, Stenotrophomonas maltophilia ATCC 13637, Candida albicans ATCC 90029. The ΔsbmA strain of E. coli BW25113 belongs to the KEIO collection and the clinical isolate of Enterobacter agglomerans was kindly provided by Prof. C. Lagatolla from the Microbiology Laboratory of the University of Trieste. All the growth media were purchased from Difco (part of Thermo Fisher Scientific, MA, USA).
(§2) Bacteria were grown in Mueller-Hinton broth (MHB), except E. faecium, which was grown overnight in brain-heart infusion (BHI); E. coli BW25113 ΔsbmA was grown in the presence of 50 μg/mL kanamycin. C. albicans was grown in Sabouraud broth.
(§3) All the strains were grown overnight at 37 °C (except E. agglomerans, S. maltophilia and C. albicans, which were grown at 30 °C), with shaking at 140 rpm. The overnight bacterial cultures were then diluted approximately 1:40 in fresh growth medium and incubated at 37 °C or 30 °C with shaking (140 rpm) until an OD600 of between 0.3 and 0.5 was reached.
(§4) The minimum inhibitory concentration was determined by the broth microdilution method according to the NCCLS protocol. Briefly, an overnight bacterial or fungal culture was diluted in fresh MH or Sabouraud broth, respectively (300 µL O/N culture in 10 mL MHB/Sabouraud) and the culture was let grow at 37 °C or 30 °C to reach OD600 between 0.3 and 0.5. Serial two-fold dilutions of peptides were then performed in culture medium (Sabouraud, MHB or 20% MHB in PBS), to a final volume of 50 µL in the wells of a round bottom microtiter plate (Sarstedt, Milan, Italy), and then the bacterial suspension with a load of 5 × 10^5 CFU/mL was added to the plate, halving the final concentration of bacteria and peptides. The culture was grown at 37 °C or 30 °C and the MIC was determined after 18h by visual inspection as the first clear well. The assessment was performed taking into consideration at least three independent experiments performed in duplicate.

E. coli BW25113—Δ SbmA = assay type: cell-based, Escherichia coli; details: E. coli BW25113 ΔSbmA, median of n ≥ 3
Excerpt: as §1, §2, §3, §4

C. albicans ATCC 90029 = assay type: cell-based, Candida albicans; details: ATCC 90029, 18 h
Excerpt: as §1, §2, §3, §4

[1] = system: E. agglomerans—clinical isolate; assay type: cell-based, Enterobacter agglomerans; details: 18 h
Excerpt: as §1, §2, §3, §4

[2] = system: S. maltophilia ATCC 13637; assay type: cell-based, Stenotrophomonas maltophilia; details: ATCC 13637, 18 h
Excerpt: as §1, §2, §3, §4

[3] = system: human red blood cells (hRBCs); assay type: cell-based
Method: Figure 4 Evaluation of in vitro toxicity of CePrAMPs. (A) Hemolysis assay against human red blood cells (hRBCs), re-suspended in PBS at 4% (v/v) concentrations, measured as the absorbance of released hemoglobin (540 nm) after 1 h of exposure to the peptides. Results are reported as percentages with respect to hRBCs treated for 1 h with 1% Triton X-100 (considered as 100%), and are the average of three independent experiments (n = 3); (B,C) Evaluation via MTT assay of the viability of the indicated eukaryotic cell lines after exposure to the peptides. HaCat (B) or MEC-1 (C) cells were incubated with the different peptides at increasing concentrations for 21 h (B) or 20 h (C), before treating cells with MTT. Results are reported as the percentage of viable cells with respect to the untreated control, and are the average of three independent experiments (n = 3) (* = p < 0.05; ** = p < 0.01).
The lytic potential towards eukaryotic cell membranes was assessed by measuring the release of hemoglobin from human red blood cells (hRBCs) after exposure to the peptides. hRBCs were collected from single donor- human whole blood (Cambridge Bioscience, UK), being isolated by centrifugation, washed three times with PBS, and resuspended to either 8% or 0.8% (v/v) in PBS. […]

[4] = system: bacterial protein synthesis (E. coli extracts); assay: In vitro transcription/translation assay (firefly luciferase reporter); assay type: biochemical; details: E. coli lysate, 30 °C, 1 h, increasing peptide concentrations up to 25 µM, n ≥ 3
Method: Several PrAMPs derived from artiodactyl or insect peptides act by interfering with bacterial protein synthesis. To evaluate if the cePrAMPs also targeted this process, in vitro transcription/translation assays were carried out in their presence, assessing the inhibition of the synthesis of a reporter luciferase (Figure 3). […].  Figure 3 Luciferase activity after in vitro transcription/translation reactions in presence of cePrAMPs. E. coli extracts were incubated with the firefly luciferase reporter DNA in the presence of increasing concentrations of cePrAMPs. Results are presented as the percentage with respect to control samples treated with only RNase-free water. Average and standard deviation of at least three independent experiments (n ≥ 3).
Reactions were set up using lysates of the RTS 100 E. coli HY kit from Biotechrabbit (Berlin, Germany) according to the user manual. Briefly, 1 μL of peptide solution was added to each reaction to reach the desired final concentration in a final volume of 6 μL. […] The presence of luciferase reporter protein was quantified by measuring its luminescence using a Infinite M200 plate reader (Tecan, Männedorf, Switzerland). The relative luminescence values for all the assays were calculated as a percentage of the positive control (reactions with nuclease-free water instead of the peptides) using three independent replicates. […]

[5] = Resuspension of the peptides in Mueller-Hinton broth; assay type: physicochemical; details: 100% Mueller-Hinton broth
Excerpt: . To solve this issue and determine how it affected antimicrobial activity, bacterial susceptibility tests were repeated with most strains using 20% Mueller-Hinton broth. With some exceptions, these four peptides did indeed increase their activity in this medium, as did the others, in such a manner that the relative differences remained substantially unchanged (Table S1). Therefore, sequence-activity considerations remain valid.

P. aeruginosa ATCC 27853 = assay type: cell-based, Pseudomonas aeruginosa; details: 20% Mueller-Hinton broth in PBS, median of n ≥ 3
Excerpt: as §1, §2, §3
(§5) The minimum inhibitory concentration was determined by the broth microdilution method according to the NCCLS protocol. […]

E. coli BW25113 = assay type: cell-based, Escherichia coli
Excerpt: as §1, §2, §3, §4

[6] = system: K. pneumoniae ATCC 700603; assay type: cell-based, Klebsiella pneumoniae; details: 20% Mueller-Hinton broth in PBS, median of n ≥ 3
Excerpt: as §1, §2, §3, §5

[7] = system: panel of reference pathogenic bacterial and fungal strains; assay type: cell-based
Excerpt: as §1, §2, §3, §4

S. aureus ATCC 25923 = assay type: cell-based, Staphylococcus aureus; details: ATCC 25923, 18 h
Excerpt: as §1, §2, §3, §5

[8] = 20% Mueller-Hinton broth in PBS
[9] = broth microdilution (NCCLS), Mueller-Hinton broth, 37 °C, 18 h, visual
[10] = against P. aeruginosa and E. faecium
[11] = against all the Gram-negative pathogen and C. albicans

Row | Sequence | MIC (E. faecium ATCC 19434) [µM] | MIC (E. coli BW25113—Δ SbmA; [8]) [µM] | MIC (E. coli BW25113—Δ SbmA; [9]) [µM] | MIC (C. albicans ATCC 90029) [µM] | MIC [1] [µM] | MIC [2] [µM] | hemolytic effect [3] | inhibition of in vitro transcription/translation (luciferase activity) [4] | resuspension in growth medium [5] | MIC (P. aeruginosa ATCC 27853) [µM] | MIC (E. coli BW25113; BW25113, 18 h) [µM] | MIC (E. coli BW25113; E. coli BW25113, 20% Mueller-Hinton broth in PBS, median of n ≥ 3) [µM] | MIC [6] [µM] | MIC [7, 10] [µM] | MIC ([7]; against P. aeruginosa and E. faecium, listed as Bal) [µM] | MIC [7, 11] [µM] | MIC ([7]; against P. aeruginosa and E. faecium, listed as Lip) [µM] | MIC (S. aureus ATCC 25923) [µM]
1 | RRIPFWPIPLRWQWPPPWFPPSFPIPRISRKR [Del1] | 4 | 1 | 8 | 8 | 8 | 4 | relatively high hemolytic effect | – | – | – | – | – | – | – | – | – | – | –
2 | RRIPFWPPNLPGPRRPPWFLPDFRIPRIPRKR [Orc1] | 16 | – | 2 | 4 | 8 | 2 | – | – | – | – | – | – | – | – | – | – | – | –
3 | RRIRFPFPPFPWQWPPAGF [Neo1] | >64 | – | – | 32 | 64 | 24 | – | almost no inhibitory activity on protein synthesis | difficult to resuspend in 100% Mueller-Hinton broth | 64 | 24 | 16 | > 64 | – | – | – | – | –
4 | RRIRFRPPRLPRPRPRPWIPPRFPFPRIPGKR [Bal1] | 4 | 0.5 | 2 | 1.5 | 0.5 | 1 | – | – | – | – | – | – | – | 2 to 4 | ≤ 4 | ≤ 2 | – | –
5 | RRIRIRPPRLPRPRPRPWFPPRFPIPRIPGKR [Lip1] | 4 | 0.5 | 1.5 | 2 | 0.5 | 0.5 | – | – | – | – | – | – | – | 2 to 4 | – | ≤ 2 | ≤ 4 | –
6 | RRIRPRPPRLPRPRPRPLPFPRPGPRPIPRPLPFP [Bac7(1-35), reference compound] | 64 | 2 | 8 | 2 | 0.5 | 1 | – | – | – | – | – | – | – | – | – | – | – | >64
